Data on two compounds can be found in patent US20040115710A1, “Method for assaying compounds that decrease the activity of poly (ADP-ribose)-Polymerase (PARP)” (Aventis Pharmaceuticals Inc., priority 2002, published 2004).

The target of assay [1] is T1, Poly(ADP-Ribose)-Polymerase enzyme (PARP) (Homo sapiens, UniProt P09874).
T1 construct: IC50
As to the kind of experiment: Fluorescence polarization PARP inhibition assay (Texas Red-labeled NAD+ tracer, histone, DNA). Type of assay: biochemical. The conditions noted are these: known inhibitor of PARP used as control compound; inhibition curve in FIG. 3. The source says:
(§1) The transfer of Texas Red-ADP ribose to protein substrates (histone and PARP itself) can be monitored through the rotational speed of the fluorescence tracer by the fluorescence polarization method. The assay measures the ability of the test compounds to inhibit the enzyme to transfer fluorescence labeled ADP to protein substrates.
(§2) A PARP baculovirus which encodes the amino acid sequence of FIG. 6 (SEQ ID NO: 1), was used to infect sf(9) cells. After PARP was expressed, it was partially purified by 40-70% ammonia sulfate cuts, and then re-suspended in TRIS buffer containing 25% (v/v) glycerol. […]
(§3) After incubation, this mixture and the control mixture were illuminated with plane polarized light having a wavelength of 590 nm, and the fluorescence polarization of the mixture and the control mixture were measured using a fluorescence filter set with an excitation wavelength of 590 nm, and an emission wavelength of 620 nm. The measurements were made with a fluorescence polarization plate reader in fluorescence polarization (FP) mode. These two measurements were then compared to determine whether the fluorescence polarization measurement of the mixture containing the compound or agent is less than that of the control. […]

Assay [2] has as its target Poly(ADP-Ribose)-Polymerase enzyme (PARP) (Homo sapiens, UniProt P09874, E70Q). Described as above. Type of assay: biochemical. The conditions noted are these: standard (control) inhibitor of PARP, value given in materials table.
From the text: as §1, §2, §3

Poly(ADP-Ribose)-Polymerase enzyme (PARP) (Homo sapiens, UniProt P09874, E70Q), sequence (P09874 whole entry E70Q): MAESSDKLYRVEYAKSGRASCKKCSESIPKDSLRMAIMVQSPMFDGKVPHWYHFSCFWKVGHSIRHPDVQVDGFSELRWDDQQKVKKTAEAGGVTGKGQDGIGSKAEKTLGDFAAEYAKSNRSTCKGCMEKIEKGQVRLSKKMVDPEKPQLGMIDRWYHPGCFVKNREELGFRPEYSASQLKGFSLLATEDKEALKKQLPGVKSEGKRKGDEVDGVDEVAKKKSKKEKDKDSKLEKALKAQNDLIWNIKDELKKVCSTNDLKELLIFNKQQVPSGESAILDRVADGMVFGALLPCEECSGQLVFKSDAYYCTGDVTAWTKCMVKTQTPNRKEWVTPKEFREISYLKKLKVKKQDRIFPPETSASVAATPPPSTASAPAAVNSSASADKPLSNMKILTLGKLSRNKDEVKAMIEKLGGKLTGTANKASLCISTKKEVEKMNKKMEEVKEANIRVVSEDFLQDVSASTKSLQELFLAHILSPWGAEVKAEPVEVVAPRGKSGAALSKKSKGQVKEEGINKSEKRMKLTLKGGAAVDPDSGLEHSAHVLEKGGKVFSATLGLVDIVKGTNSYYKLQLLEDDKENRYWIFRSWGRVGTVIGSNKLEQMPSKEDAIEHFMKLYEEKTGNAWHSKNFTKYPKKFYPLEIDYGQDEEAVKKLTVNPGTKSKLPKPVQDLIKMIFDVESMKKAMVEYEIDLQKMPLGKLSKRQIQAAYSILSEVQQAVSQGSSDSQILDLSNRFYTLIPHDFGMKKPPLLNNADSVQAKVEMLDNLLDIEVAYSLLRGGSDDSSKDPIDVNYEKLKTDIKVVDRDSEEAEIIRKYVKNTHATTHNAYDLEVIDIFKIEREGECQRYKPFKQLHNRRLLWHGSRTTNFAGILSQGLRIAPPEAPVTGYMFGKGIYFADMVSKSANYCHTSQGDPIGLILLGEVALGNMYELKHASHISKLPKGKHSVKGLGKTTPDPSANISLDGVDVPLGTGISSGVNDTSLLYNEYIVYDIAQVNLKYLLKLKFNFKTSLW
T1 sequence (P09874 whole entry): as the sequence (P09874 whole entry E70Q) above, with Q70E counted along it

For `Oc1cccc2c(O)nccc12` [1,5-isoquinoline-diol], the midpoint of inhibition in assay [1], the IC50, lay at 379 nM.

In turn, `O=c1[nH]c2ccccc2c2ccccc12` [6(5H)-phenanthridinone] returned an IC50 in assay [2] of 200 nM.

A word on the IC50: it is the concentration that inhibits the measured activity by half. A higher IC50 goes with a need for much substance.
